These results are taken from patent US6642003B2, “Human glucose-dependent insulin-secreting cell line” (Cedars-Sinai Medical Center, priority 2001, dated 2003).

Experiment [1] relates to PANC-1/IDX-1 cells. Briefly: RT-PCR of islet β-cell specific transcripts, PANC-1/IDX-1 cells. Format: cell-based, human. The procedure:
(§1) PANC-1 cells were transfected with a pcDNA3 construct (Invitrogen; Carlsbad, Calif.) harboring the wild-type full-length IDX-1 cDNA using LipoTAXI (Catalog N. 204110; Mammalian Transfection Kit, Stratagene; La Jolla, Calif.). Control cells were transfected with the vector alone. The selection of positive (i.e. transfected) cells was carried out by culturing the cells in the presence of 400 μg/ml of G418 sulfate (GN-04, Omega; Tarzana, Calif.).
After the treatment of ARIP and PANC-1 cells with GLP-1, Exendin-9, or vehicle, for the described length of time and the various doses, the culture medium was removed and the cells were washed (twice) with serum-free medium. Total RNA was isolated using the TRiazol-method (Gibco-BRL), and treated with DNase (Amplification Grade, GibcoBRL) in 20 mmol/l Tris-HCL (pH 8.4), 2 mmol/l MgCl2, and 50 mmol/l KCl to remove any traces of contaminating genomic DNA. RNA (2.5 μg) was then subjected to reverse transcription (RT reagents; Promega; Madison, Wis.). RT-PCR was undertaken in a volume of 50 μl of buffer containing 50 mmol/l KCl, 10 mmol/l Tris-HCl, 3.5 mmol/l MgCl2, 200 μmol/l each dNTPs, and 0.4 μmol/l each of sense and antisense primers to rat or human insulin (depending on the specific cell from which the RNA was extracted). Amplification was performed for 30 cycles at the denaturing temperature of 94° C. for 1 min, annealing temperature of 60° C. for 45 sec, and an extension temperature of 72° C. for 1 min. […] These included more irregular and variable cell shapes, with a cytoplasm less homogenous and “rougher” in appearance than control culture.
Treatment with GLP-1 induces the differentiation of ductal epithelial cells into insulin-producing cells. FIG. 2 illustrates a series of cell cultures grown with or without GLP-1 (10 nM) for 72 h. […] Preabsorption of the antibody with an excess of human recombinant insulin prevented the staining of insulin-positive GLP-1 treated cells (data not shown). While treatment with GLP-1 turned the majority of ARIP cells into […] For β-actin, the annealing temperature was raised to 64° C. for 1 min and gene-specific primers were used. For GLP-1-receptor (GLP-R) the annealing temperature used was 55° C. All other experimental conditions to amplify GLUT2, glucokinase, and GLP-R mRNAs were identical to those described for the amplification of insulin mRNA. RT and PCR conditions for human transcripts were identical to those described for rat mRNAs.
Southern blotting with species-specific full length cDNA probes for insulin, GLUT-2, glucokinase, GLP-1 receptor and β-actin was performed as previously described. Y. Wang, R. Perfetti, N. H. Greig, H. W. Holloway, K. A. DeOre, C. Montrose-Rafizadeh, D. Elahi, J. M. Egan, “Glucagon-like peptide-1 can reverse the age-related decline in glucose tolerance in rats.” J Clin Invest 99:2883-2889, 1997.

In experiment [2] the test system is PANC-1/IDX-1 cells. Put plainly: Immunofluorescence for IDX-1, PANC-1/IDX-1 cells. Type of experiment: cell-based, human. The procedure: as §1
Cells were cultured on monocoated chamber slides (Nalge Nunc International; Naperville, Ill.) in the presence of GLP-1 (10 nM), or vehicle, for 72 h.
For the detection of IDX-1, slightly different conditions were used. Briefly: the concentration of paraformaldehyde was decreased to 2%, and the concentration of Triton to permeabilize the cells was raised to 0.2% Triton-X-100. Cells were then washed with 0.01 M PBS three times for 3-5 min, and non-specific binding was inhibited by using 5% chick serum in 0.01 M PBS, at room temperature for 60 min in a humid chamber. […] The percentage of IDX-1 containing cells was evaluated by counting the number of IDX-1 “positive” cells divided by the total number of cells identified by nuclear staining.

For the substance glucagon-like peptide-1 [GLP-1], in the experiment on PANC-1/IDX-1 cells [1] (GLP-1 10 nM), the “time of GLUT2 mRNA expression” value is listed as 24 h, the “time of earliest detection of insulin mRNA” value was 48 h and the “time of glucokinase mRNA expression” value was 72 h. In the experiment on PANC-1/IDX-1 cells [1] (data not shown), the “GLP-1 dose at peak of insulin mRNA levels” value worked out at 10 nM, the “GLP-1 dose at plateau of insulin mRNA levels” value turned out to be 20 nM and the “lowest dose of GLP-1 required to detect insulin mRNA” value is 1 nM. In the experiment on PANC-1/IDX-1 cells [2] (GLP-1 10 nM for 72 h), the “effect on expression level of IDX-1” value is recorded as “further increase”. Also, the “cells expressing IDX-1” value with PANC-1/IDX-1 cells [2] (GLP-1 or vehicle, 400 cells counted) is on record as about 100%.
